Structures are written as SMILES. Where a name gives a salt, the structure may show the parent alone.

In the assay the target is T1, human activated blood coagulation factor X (Homo sapiens, UniProt P00742).
T1 construct: disulfide-linked light and heavy chains of one precursor) added to human plasma with CaCl2; clotting time CT2
T1 sequence (P00742 41-179): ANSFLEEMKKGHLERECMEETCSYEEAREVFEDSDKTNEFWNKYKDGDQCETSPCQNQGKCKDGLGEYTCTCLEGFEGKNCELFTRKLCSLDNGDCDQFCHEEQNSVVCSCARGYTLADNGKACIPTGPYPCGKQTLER
T1 sequence (P00742 235-488): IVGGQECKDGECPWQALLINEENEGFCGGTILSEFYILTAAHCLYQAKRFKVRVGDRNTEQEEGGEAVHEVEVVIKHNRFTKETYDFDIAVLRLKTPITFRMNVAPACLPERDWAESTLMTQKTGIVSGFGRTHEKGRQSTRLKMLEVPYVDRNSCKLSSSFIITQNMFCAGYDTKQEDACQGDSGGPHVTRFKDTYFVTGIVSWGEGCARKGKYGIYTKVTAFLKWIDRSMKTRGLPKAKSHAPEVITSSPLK
In words: measuring the time for blood coagulation with the human activated blood coagulation factor X. The settings on record: dose of the test compound for 2-time prolongation of the coagulation time; human plasma, 37° C.; read-out: Test for measuring coagulation time with the human activated blood coagulation factor X, CT2. The class given is biochemical.
Description: 1) Method of measuring the time for blood coagulation with the human activated blood coagulation factor X:
The human activated blood coagulation factor X (Cosmo-Bio Co.) was dissolved in 0.05 M tris-HCl buffer (pH=7.40) to prepare its solution of 0.05 units/ml. Blood was collected in 3.8% sodium citrate to be 1/10 by volume, and centrifuged at 3,000 rpm for 10 minutes to separate human plasma therefrom. 90 μl of the thus-prepared human plasma, 10 μl of a test compound as diluted with physiological saline, and 50 μl of the solution of the activated blood coagulation factor X were kept warmed at 37° C. for 3 minutes, to which was added 100 μl of a solution of 20 mM CaCl2, and the time for blood coagulation in the system was measured.
To measure the coagulation time, used was Amelung's KC4A. The dose of the test compound for 2-time prolongation of the coagulation time (hereinafterreferred to as CT2) was calculated on the basis of the coagulation time for the control to which was added 10 μl of physiological saline with no test compound.
For `CC(=N)N1CCCN(c2ccc(N(Cc3ccc4ccc(C(=N)N)cc4c3)S(=O)(=O)CC(=O)O)cc2)CC1` [Example 33, [N-[4-(4-acet-imidoylhexahydro-1H-1,4-diazepin-1-yl)phenyl]-N-[(7-amidino-2-naphthyl)methyl]sulfamoyl]acetic acid dihydro-chloride], the EC (2-fold clotting time) came out at 0.098 µM. In the case of `CC(=N)N1CCCN(c2ccc(N(Cc3ccc4ccc(C(=N)N)cc4c3)S(=O)(=O)CC(=O)O)cn2)CC1` [Example 32, [N-[6-(4-Acetimidoylhexahydro-1H-1,4-diazepin-1-yl)-3-pyridyl]-N-[(7-amidino-2-naphthyl)methyl]sulfamoyl]acetic acid], the EC (2-fold clotting time) worked out at 0.089 µM.

In the case of `CC(=N)N1CCCN(c2ccc(N(Cc3ccc4ccc(C(=N)N)cc4c3)C(=O)CCC(=O)O)cn2)CC1` [Example 84], the EC (2-fold clotting time) stood at 0.134 µM. On to `CCOC(=O)CC(=O)N(Cc1ccc2ccc(C(=N)N)cc2c1)c1ccc(N2CCCN(C(C)=N)CC2)cc1` [Example 24, Ethyl N-[4-(4-acetimidoylhexahydro-1H-1,4-diazepin-1-yl)phenyl]-N-[(7-amidino-2-naphthyl)methyl]malonamate], for which the EC (2-fold clotting time) is 0.152 µM. Then `CCOC(=O)CS(=O)(=O)N(Cc1ccc2ccc(C(=N)N)cc2c1)c1ccc(N2CCCN(C(C)=N)CC2)cc1` [Example 22, ethyl [N-[4-(4-acetimidoylhexahydro-1H-1,4-diazepin-1-yl)phenyl]-N-[(7-amidino-2-naphthyl)methyl]-sulfamoyl]acetate dihydrochloride], with 0.111 µM; and `CC(=N)N1CCCN(c2ccc(N(Cc3ccc4ccc(C(=N)N)cc4c3)C(=O)CCC(=O)O)cc2)CC1` [Example 36, N-[4-(4-Acetimidoylhexahydro-1H-1,4-diazepin-1-yl)phenyl]-N-[(7-amidino-2-naphthyl)methyl] succinamic acid], with 0.069 µM; and `CC(=N)N1CCCN(c2ccc(N(Cc3ccc4ccc(C(=N)N)cc4c3)C(=S)NCC(=O)O)cc2)CC1` [Example 75, N-[4-(4-Acetimidoylhexahydro-1H-1,4-diazepin-1-yl)phenyl]-N-[(7-amidino-2-naphthyl)methyl]thioamido-acetic acid], with 0.095 µM. As for `CCOC(=O)CC(=O)N(Cc1ccc2ccc(C(=N)N)cc2c1)c1ccc(N2CCCN(C(C)=N)CC2)nc1` [Example 72], the EC (2-fold clotting time) came to 0.119 µM. In the case of `CCOC(=O)CCC(=O)N(Cc1ccc2ccc(C(=N)N)cc2c1)c1ccc(N2CCCN(C(C)=N)CC2)nc1` [Example 73], the EC (2-fold clotting time) was 0.224 µM. `CC(=N)N1CCCN(c2ccc(N(Cc3ccc4ccc(C(=N)N)cc4c3)C(C)=O)cc2)CC1` [Example 17]: the EC (2-fold clotting time) was 0.092 µM. Then `CCOC(=O)CNS(=O)(=O)N(Cc1ccc2ccc(C(=N)N)cc2c1)c1ccc(N2CCCN(C(C)=N)CC2)cc1` [Example 23, Ethyl N-[N-[4-(4-acetimidoylhexahydro-1H-1,4-diazepin-1-yl)phenyl]-N-[(7-amidino-2-naphthyl)methyl]-sulfamoyl]glycinate], with 0.11 µM.

The values above are taken from patent US6333320A, “Hexahydro-1,4-diazepine derivatives or salts thereof” (Yamanouchi Pharmaceutical Co., priority 1997, dated 2001).
